The record followed here is patent US11464749B2, “Bismuth-thiol compositions and methods of use” (Microbion Corporation, priority 2018, dated 2022).

Data set [1] is described as follows: Single-dose rat PK comparing inhalation, IV and oral dosing. Here is the method: Blood Collection for Bioanalytical Analysis: Following exposure, non-terminal blood collections were performed on 2 animals per sex at 0.5, 2, and 8 hours post exposure. Approximately 1 mL of systemic whole blood was collected by jugular vein into tubes containing K3EDTA as an anticoagulant. The tubes were flash frozen with liquid nitrogen stored without processing at −70 to −90° C. until shipping for analysis using ICP-MS assay for quantitation of bismuth as a surrogate for BisEDT.
Increasing the dose and interval leads to larger fluctuations in tissue and blood levels between peak (after dosing) and trough levels (prior to dosing).

Data set [2] is described as follows: Rat nose-only inhalation study: whole blood and lung BisEDT. In kind it is in vivo, F344 rats. The note with it: single inhalation dose 47 μg/kg, 8 hr. Here is the method: Inhalation Exposure: The initial exposure of BisEDT (Bismuth-1,2-ethanedithiol) was formulated as […] at 100 mg/mL in suspension in 0.5% TWEEN 80®, 10 mM sodium phosphate, pH 7.4, in NaCl (adjusted to approximately 300 mOsm). Aerosols were generated with a commercial compressed air jet nebulizer, PAD LC PLUS®, operated with an inlet pressure of 20 psi.
Detailed gross necropsies were performed on all animals (found dead, moribund, or scheduled necropsy) and consisted of a complete external and internal examination including body orifices and cranial, thoracic, and abdominal organs and tissues. All gross findings will be recorded in descriptive terms. […] Lungs collected and weighed.

The mark [3] stands for this setting: 24 hours after single inhalation dose.
[4] abbreviates: 4 days (96 hrs) after single inhalation dose.

As a reminder, the Kp is the ratio of the level in a tissue or fluid to that in plasma or blood. Regarding `C1C[S][Bi]([S]CC[S][Bi]2[S]CC[S]2)[S]1` [BisEDT, bismuth-1,2-ethanedithiol], the “lung levels after IV dosing vs inhalation group” value in data set [1] (100 μg/kg IV) is given as under 5%. The tolerability result in data set [1] (100 μg/kg inhalation and IV and 250 μg/kg oral) is “tolerated”. Further, the “lung levels after oral dosing” value in data set [1] (250 μg/kg oral) is “no lung levels”. In data set [1] (setting [3]), the “equated concentration in lung fluid” value was 123 µg/mL and the lung tissue concentration was 4,093 ng/g. For the same compound, in data set [1] (setting [4]), the “equated concentration in lung fluid” value was 78 µg/mL and the lung tissue concentration is 2,600 ng/g. Further, the “duration of initial distribution into tissues” value in data set [1] (IV dosing) amounted to 18 h. For the same compound, in data set [1] (both, lung versus whole blood, inhaled, 100 μg/kg), the Kp was about 10. Moreover, the “Mean BisEDT Conc, whole blood” value in data set [2] is 114 ng/mL.
